In assay [1] the target is ALK tyrosine kinase receptor (Homo sapiens, UniProt Q9UM73). In words: Inhibition of recombinant human GST-tagged ALK expressed in baculovirus expression system by Z'LYTE assay.
In assay [2] the target is Proto-oncogene tyrosine-protein kinase ROS (Homo sapiens, UniProt P08922). In words: Inhibition of recombinant human GST-tagged ROS1 expressed in baculovirus expression system by Z'LYTE assay.
Assay [3] concerns the target Tyrosine-protein kinase ABL1 (Homo sapiens) (UniProt P00519). Briefly: Inhibition of recombinant human His-tagged ABL1 expressed in baculovirus expression system at 1 uM by Z'LYTE assay relative to control.
In assay [4] the target is Serine/threonine-protein kinase B-raf (Homo sapiens) (UniProt P15056). In words: Inhibition of recombinant human full length GST-tagged BRAF expressed in baculovirus expression system at 1 uM by Z'LYTE assay relative to control.
For assay [5], the target named is CDK2/Cyclin A2 (Homo sapiens) (UniProt P24941+P20248). Briefly: Inhibition of recombinant human full length His-tagged CDK2/cyclin A expressed in baculovirus expression system at 1 uM by Z'LYTE assay relative to control.
In assay [6] the target is Epidermal growth factor receptor (Homo sapiens) (UniProt P00533). Briefly: Inhibition of recombinant human GST-tagged EGFR expressed in baculovirus expression system at 1 uM by Z'LYTE assay relative to control.
Assay [7] concerns the target Fibroblast growth factor receptor 1 (Homo sapiens) (UniProt P11362). Briefly: Inhibition of recombinant human His-tagged FGFR1 expressed in baculovirus expression system at 1 uM by Z'LYTE assay relative to control.
Assay [8] deals with Insulin-like growth factor 1 receptor (Homo sapiens) (UniProt P08069). In words: Inhibition of recombinant human His-tagged IGF1R expressed in baculovirus expression system at 1 uM by Z'LYTE assay relative to control.
For assay [9], the target named is Tyrosine-protein kinase JAK2 (Homo sapiens) (UniProt O60674). Briefly: Inhibition of recombinant human GST-tagged JAK2 expressed in baculovirus expression system at 1 uM by Z'LYTE assay relative to control.
Assay [10] addresses Mast/stem cell growth factor receptor Kit (Homo sapiens) (UniProt P10721). In words: Inhibition of KIT (unknown origin) at 1 uM by Z'LYTE assay relative to control.
Assay [11] concerns the target Leukocyte tyrosine kinase receptor (Homo sapiens) (UniProt P29376). Briefly: Inhibition of recombinant human GST-tagged LTK expressed in baculovirus expression system at 1 uM by Z'LYTE assay relative to control.
The target in assay [12] is Mitogen-activated protein kinase 3 (Homo sapiens) (UniProt P27361). In words: Inhibition of recombinant human GST-tagged full length MAPK3 expressed in Escherichia coli at 1 uM by Z'LYTE assay relative to control.
In assay [13] the target is Hepatocyte growth factor receptor (Homo sapiens) (UniProt P08581). In words: Inhibition of recombinant human His-tagged MET expressed in mammalian expression system at 1 uM by Z'LYTE assay relative to control.
The target in assay [14] is Platelet-derived growth factor receptor alpha (Homo sapiens) (UniProt P16234). In words: Inhibition of recombinant human GST-tagged PDGFRalpha expressed in baculovirus expression system at 1 uM by Z'LYTE assay relative to control.
The next assay relates to NCI-H3122. Briefly: Antiproliferative activity against human NCI-H3122 cells after 48 hrs by MTT assay. To be noted: NCI-H3122, 48 h.
In the next assay the test system is HCC78. Briefly: Antiproliferative activity against human HCC78 cells after 48 hrs by MTT assay. To be noted: HCC78, 48 h.

Epidermal growth factor receptor (Homo sapiens), sequence (P00533 whole entry): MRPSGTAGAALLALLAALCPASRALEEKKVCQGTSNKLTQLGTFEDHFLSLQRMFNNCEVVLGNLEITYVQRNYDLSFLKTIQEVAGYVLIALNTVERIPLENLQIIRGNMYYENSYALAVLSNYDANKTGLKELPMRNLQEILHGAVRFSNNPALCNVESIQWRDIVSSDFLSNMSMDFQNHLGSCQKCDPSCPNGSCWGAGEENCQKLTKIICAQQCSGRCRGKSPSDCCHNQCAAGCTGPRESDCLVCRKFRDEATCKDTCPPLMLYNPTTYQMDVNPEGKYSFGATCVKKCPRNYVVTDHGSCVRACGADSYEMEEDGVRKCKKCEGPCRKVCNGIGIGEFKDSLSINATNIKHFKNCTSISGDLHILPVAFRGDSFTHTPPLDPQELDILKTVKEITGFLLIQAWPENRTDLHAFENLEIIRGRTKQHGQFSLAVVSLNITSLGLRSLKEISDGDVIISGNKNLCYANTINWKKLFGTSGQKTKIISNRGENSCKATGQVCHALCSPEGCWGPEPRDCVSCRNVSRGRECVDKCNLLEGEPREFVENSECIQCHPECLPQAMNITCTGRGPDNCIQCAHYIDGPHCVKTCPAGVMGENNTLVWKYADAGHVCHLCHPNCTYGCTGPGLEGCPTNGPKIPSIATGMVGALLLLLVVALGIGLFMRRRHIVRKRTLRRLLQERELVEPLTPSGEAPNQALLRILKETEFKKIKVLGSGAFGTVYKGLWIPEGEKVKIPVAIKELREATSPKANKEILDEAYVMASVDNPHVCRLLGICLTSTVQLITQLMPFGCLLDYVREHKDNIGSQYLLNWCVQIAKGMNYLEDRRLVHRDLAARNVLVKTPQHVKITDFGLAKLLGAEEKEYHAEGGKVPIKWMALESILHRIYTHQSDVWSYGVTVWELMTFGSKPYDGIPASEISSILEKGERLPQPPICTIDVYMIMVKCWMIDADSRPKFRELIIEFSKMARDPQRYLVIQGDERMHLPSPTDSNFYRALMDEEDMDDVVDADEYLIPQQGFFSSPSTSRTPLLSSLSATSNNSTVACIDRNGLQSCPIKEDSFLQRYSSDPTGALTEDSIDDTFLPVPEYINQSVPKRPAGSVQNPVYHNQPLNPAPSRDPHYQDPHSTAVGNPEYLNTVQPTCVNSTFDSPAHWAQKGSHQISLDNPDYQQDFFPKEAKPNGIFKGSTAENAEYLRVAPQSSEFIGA
Tyrosine-protein kinase ABL1 (Homo sapiens), sequence (P00519 whole entry): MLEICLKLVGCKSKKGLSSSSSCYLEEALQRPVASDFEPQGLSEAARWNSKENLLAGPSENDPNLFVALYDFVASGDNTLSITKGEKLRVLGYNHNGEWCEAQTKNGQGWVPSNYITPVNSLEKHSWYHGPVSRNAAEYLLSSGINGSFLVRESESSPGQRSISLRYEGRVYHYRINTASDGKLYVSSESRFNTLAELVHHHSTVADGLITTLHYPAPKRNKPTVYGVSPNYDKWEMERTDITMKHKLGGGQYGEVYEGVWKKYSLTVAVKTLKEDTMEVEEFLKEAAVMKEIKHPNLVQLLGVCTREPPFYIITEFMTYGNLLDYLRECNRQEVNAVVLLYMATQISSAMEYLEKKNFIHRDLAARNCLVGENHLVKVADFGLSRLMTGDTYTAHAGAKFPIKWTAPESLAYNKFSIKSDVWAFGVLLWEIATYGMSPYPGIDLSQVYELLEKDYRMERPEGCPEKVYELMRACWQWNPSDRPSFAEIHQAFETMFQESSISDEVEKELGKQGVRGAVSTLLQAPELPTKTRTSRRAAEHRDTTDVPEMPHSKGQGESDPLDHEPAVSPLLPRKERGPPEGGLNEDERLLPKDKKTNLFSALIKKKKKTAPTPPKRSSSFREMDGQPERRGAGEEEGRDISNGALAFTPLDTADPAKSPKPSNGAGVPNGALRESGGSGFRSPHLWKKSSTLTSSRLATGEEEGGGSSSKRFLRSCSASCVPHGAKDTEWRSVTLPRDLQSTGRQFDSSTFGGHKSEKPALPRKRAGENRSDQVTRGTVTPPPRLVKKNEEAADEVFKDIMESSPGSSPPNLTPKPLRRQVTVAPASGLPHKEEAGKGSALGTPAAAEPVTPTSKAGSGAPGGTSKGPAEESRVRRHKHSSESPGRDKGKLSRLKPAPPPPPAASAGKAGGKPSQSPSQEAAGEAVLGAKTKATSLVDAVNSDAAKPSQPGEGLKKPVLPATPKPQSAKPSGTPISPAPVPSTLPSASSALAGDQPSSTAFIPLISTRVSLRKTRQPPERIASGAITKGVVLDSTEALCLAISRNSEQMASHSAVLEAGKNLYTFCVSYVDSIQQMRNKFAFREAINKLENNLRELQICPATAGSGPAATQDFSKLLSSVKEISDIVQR
Tyrosine-protein kinase JAK2 (Homo sapiens), sequence (O60674 whole entry): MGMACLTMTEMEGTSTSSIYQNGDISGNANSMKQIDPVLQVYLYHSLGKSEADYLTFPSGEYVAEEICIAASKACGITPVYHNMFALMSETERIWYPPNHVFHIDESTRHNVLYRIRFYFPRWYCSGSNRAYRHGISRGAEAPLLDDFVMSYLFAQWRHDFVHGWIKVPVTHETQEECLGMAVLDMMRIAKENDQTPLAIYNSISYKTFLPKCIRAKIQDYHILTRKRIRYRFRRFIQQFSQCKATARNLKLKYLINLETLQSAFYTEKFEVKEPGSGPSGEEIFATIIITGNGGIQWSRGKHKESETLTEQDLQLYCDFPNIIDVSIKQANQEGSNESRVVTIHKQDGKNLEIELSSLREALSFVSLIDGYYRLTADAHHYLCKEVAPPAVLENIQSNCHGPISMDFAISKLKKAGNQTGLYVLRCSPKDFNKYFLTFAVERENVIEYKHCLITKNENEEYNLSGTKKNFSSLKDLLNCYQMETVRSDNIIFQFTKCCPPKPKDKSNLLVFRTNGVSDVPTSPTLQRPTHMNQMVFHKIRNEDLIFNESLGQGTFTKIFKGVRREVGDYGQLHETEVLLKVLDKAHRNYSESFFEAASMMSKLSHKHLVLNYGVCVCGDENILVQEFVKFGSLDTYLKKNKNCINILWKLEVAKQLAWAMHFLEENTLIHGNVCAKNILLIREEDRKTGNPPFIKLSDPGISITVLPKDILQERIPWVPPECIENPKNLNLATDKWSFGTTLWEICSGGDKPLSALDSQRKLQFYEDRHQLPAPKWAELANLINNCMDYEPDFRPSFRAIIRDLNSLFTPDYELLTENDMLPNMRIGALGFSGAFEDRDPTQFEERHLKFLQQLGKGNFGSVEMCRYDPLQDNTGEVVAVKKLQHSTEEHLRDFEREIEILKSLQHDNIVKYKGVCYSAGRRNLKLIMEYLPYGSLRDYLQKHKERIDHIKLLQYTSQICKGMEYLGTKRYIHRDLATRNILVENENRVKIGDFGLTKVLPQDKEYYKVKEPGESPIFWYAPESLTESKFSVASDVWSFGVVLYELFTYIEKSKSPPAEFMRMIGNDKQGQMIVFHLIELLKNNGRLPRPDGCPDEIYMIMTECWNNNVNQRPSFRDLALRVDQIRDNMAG
Fibroblast growth factor receptor 1 (Homo sapiens), sequence (P11362 22-822 limits assumed): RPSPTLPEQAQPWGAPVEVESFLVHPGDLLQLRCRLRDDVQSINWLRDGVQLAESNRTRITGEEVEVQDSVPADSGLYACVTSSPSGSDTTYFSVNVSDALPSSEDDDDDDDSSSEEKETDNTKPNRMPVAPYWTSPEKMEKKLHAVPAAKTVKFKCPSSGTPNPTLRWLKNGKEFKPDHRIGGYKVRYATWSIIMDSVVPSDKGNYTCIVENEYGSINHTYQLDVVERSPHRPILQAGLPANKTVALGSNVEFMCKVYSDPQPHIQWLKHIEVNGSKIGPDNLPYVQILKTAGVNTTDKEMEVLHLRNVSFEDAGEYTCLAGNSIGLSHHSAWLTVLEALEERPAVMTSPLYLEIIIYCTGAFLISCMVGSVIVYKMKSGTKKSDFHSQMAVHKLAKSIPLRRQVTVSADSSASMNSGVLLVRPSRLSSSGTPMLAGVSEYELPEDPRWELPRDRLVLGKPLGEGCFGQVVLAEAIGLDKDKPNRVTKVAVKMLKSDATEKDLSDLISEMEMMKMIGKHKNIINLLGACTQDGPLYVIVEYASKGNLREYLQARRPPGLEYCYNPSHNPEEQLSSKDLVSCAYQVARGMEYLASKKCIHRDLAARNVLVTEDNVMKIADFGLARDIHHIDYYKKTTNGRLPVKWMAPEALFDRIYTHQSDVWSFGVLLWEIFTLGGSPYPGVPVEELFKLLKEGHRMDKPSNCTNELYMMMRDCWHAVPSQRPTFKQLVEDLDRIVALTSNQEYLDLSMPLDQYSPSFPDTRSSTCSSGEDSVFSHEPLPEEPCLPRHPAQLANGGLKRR
Mitogen-activated protein kinase 3 (Homo sapiens), sequence (P27361 whole entry): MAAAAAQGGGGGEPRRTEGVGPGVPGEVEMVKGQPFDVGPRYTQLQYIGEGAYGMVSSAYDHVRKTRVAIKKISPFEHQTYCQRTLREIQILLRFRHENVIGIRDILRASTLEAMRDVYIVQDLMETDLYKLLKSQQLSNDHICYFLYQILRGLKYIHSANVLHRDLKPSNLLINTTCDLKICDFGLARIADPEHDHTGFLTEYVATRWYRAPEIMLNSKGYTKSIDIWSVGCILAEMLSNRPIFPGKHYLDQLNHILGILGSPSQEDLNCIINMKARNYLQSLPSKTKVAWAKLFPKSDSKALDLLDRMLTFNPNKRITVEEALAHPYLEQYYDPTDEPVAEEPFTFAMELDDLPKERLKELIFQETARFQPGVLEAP

Regarding `Cc1ccc(CNC(=O)c2cccc(C(C)Oc3ccnc(Nc4cnn(C5CCN(C)CC5)c4)c3)c2)cc1` (stereo unspecified), the IC50 in assay [1] amounted to 3.1 µM; in [2] it was 0.44 µM; in the assay on NCI-H3122, 8.9 µM; in the assay on HCC78, 8.1 µM. In addition, the inhibition came out at 9% in [3]; 15% in [4]; 1% in assay [5]; 1% in assay [6]; 11% in [7]; 7% in assay [8]. Besides, the inhibition in [9] is 12%; in [10], 2%; in assay [11], 9%; in [12], 8%; in [13] it was 3%; in [14] it was 6%.
